Read-outs that look alike come from different tables or passages of the source.
Columns and labels:
[1] = Acute toxicity (LD50), 21 days observation; type: in vivo; conditions: mouse, in vivo, BDF1 mice of both sexes
Procedure: Species: BDF1 mice of both sexes
Treatment: a volume of 0.2 ml./10 g. body weight of a suspension of the tested compounds in water containing 2% of Tween-80 was used.
Number of animals: 10/dose
Observation time: 21 days

Rausher leukemia = experiment: Antitumour activity, Rauscher leukemia, spleen weight (Table 3); type: in vivo, CFLP mice; conditions: from the 2nd day
Procedure: (§1) The leukemia and ascites type tumours were transplanted intraperitoneally, using an amount of 10^5 -10^7 cells, while in the case of solid tumours, small pieces of tumours were implanted subcutaneously with a trocar. Treatment:
(§2) Mice were treated with a volume of 0.1 ml./10 g. body-weight of a suspension of the tested compounds in water containing 2% of Tween-80, while rats were treated with a volume of 0.1 ml./100 g. bodyweight of a suspension of the tested compounds in water containing 5% of Tween-80.
(§3) In the case of solid tumours (Harding-Passey melanoma, S-180 and Yoshida sarcoma) the tumours were removed on the 8 to 14th day, and the inhibition was calculated by the weight of the tumours, using the following formula: [formula]
A similar method was applied in the case of the Rauscher leukemia too, but the weight of the spleen was taken, instead of the tumour, in the formula mentioned above.

Yoshida s.c. sarcoma = experiment: Antitumour activity, Yoshida s.c. sarcoma, tumour weight (Table 3); type: in vivo, CFY rats; conditions: from the 2nd day
Procedure: as §1, §2, §3

Ehrlich acites carcinoma = experiment: Antitumour activity, Ehrlich ascites carcinoma (Table 2); type: in vivo, CFLP mice; conditions: from the 2nd day; for Recovery (90 day survival): animals recovered/treated
Procedure: as §1, §2
(§4) The ascites and leukemia-type tumours were evaluated with the exception of the Rausher leukemia by the increase of the life span and by complete recovery. [formula]
(§5) Recovery=90 days of tumour free life after transplantation.

[2] = system: Ehrlich ascites carcinoma; experiment: Way of activity: thymidine index (3H-thymidine incorporation into DNS) in Ehrlich ascites carcinoma; type: in vivo, Mice; conditions: i.p. on 6th day, equitoxic doses
Procedure: (§6) Mice, being infected with Ehrlich ascites carcinoma, were treated intraperitoneally on the 6th day after transplantation with equitoxic doses of compounds 1, 2 and 6. The duration of the activity was investigated by determining the total cell number and the way of action by determining the mitosis index* and the thymidine index**. It could be shown that both compounds 1 and 2 inhibit the increase of the total cell number for 35 days, while a similar inhibition of the reference compound 6 lasts only for 17 days. As far as the quality of the activity is concerned, compounds 1 and 2 decrease the mitosis-index and the thymidine index in 24 hours by 90%, while in the case of compound 6 the decrease amounts only to 45 to 50%, and the maximum is reached on the 4th day.
**thymidine index=^3 H-thymidine incorporation into the DNS of the tumour cell.

P-388 leukemia = experiment: Antitumour activity, P-388 leukemia (Table 2); type: in vivo, BDF1 mice; conditions: from the 2nd day; for Recovery (90 day survival): animals recovered/treated
Procedure: as §1, §2, §4, §5

[3] = system: Ehrlich ascites carcinoma; experiment: Duration of activity: total cell number in Ehrlich ascites carcinoma; type: in vivo, Mice; conditions: i.p. on the 6th day after transplantation, equitoxic doses
Procedure: as §6

[4] = system: Developed Yoshida s.c. sarcoma; experiment: Recovery from developed Yoshida s.c. sarcoma, treated on 6th day (Table 4); type: in vivo, CFY rats; conditions: for Recovery (90 day survival): 30 mg./kg. 1× i.p. on 6th day, animals recovered/treated
Procedure: as §1, §2, §5

NK/Ly ascites lymphoma = experiment: Antitumour activity, NK/Ly ascites lymphoma (Table 2); type: in vivo, CFLP mice; conditions: from the 2nd day; for Recovery (90 day survival): animals recovered/treated
Procedure: as §1, §2, §4, §5

Harding-Passey melanoma = experiment: Antitumour activity, Harding-Passey melanoma, tumour weight (Table 3); type: in vivo, CFLP mice; conditions: from the 4th day after transplantation
Procedure: as §1, §2, §3

S-180 s.c. sarcoma = experiment: Antitumour activity, S-180 s.c. sarcoma, tumour weight (Table 3); type: in vivo, CFLP mice; conditions: from the 2nd day
Procedure: as §1, §2, §3

L-120 leukemia = experiment: Antitumour activity, L-1210 leukemia (Table 2); type: in vivo, BDF1 mice; conditions: for Increase in life span / Recovery (90 day survival): from the 2nd day; for Recovery (90 day survival): animals recovered/treated
Procedure: as §1, §2, §4, §5

[5] = system: Ehrlich ascites carcinoma; experiment: Way of activity: mitosis index in Ehrlich ascites carcinoma; type: in vivo, Mice; conditions: i.p. on 6th day, equitoxic doses
Procedure: as §6
*mitosis index=number of dividing cells/1000 tumour cells

[6] = ip, i.p., read-out: LD50 value i.p.
[7] = po, p.o., read-out: LD50 value p.o.

| SMILES | LD50 at 504 h [1, 6] [mg/kg] | LD50 at 504 h [1, 7] [mg/kg] | Inhibition (spleen weight) (Rausher leukemia; 10.0 mg./kg. 4× i.p.) [%] | Inhibition (spleen weight) (Rausher leukemia; 10.0 mg./kg. 4× p.o.) [%] | Inhibition (tumour weight) (Yoshida s.c. sarcoma; 3 mg./kg. 4× p.o.) [%] | Inhibition (tumour weight) (Yoshida s.c. sarcoma; 10 mg./kg. 4× i.p.) [%] | Increase in life span (Ehrlich acites carcinoma; 1.0 mg./kg. 5× i.p.) [%] | Recovery (90 day survival) (Ehrlich acites carcinoma; 1.0 mg./kg. 5× i.p.) | Duration of inhibition of the increase of the total cell number [3] [days] | Recovery (90 day survival) [4] | Recovery (90 day survival) (NK/Ly ascites lymphoma; 0.3 mg./kg. 4× i.p.) | Inhibition (tumour weight) (Harding-Passey melanoma; 10.0 mg./kg. 9× p.o.) [%] | Inhibition (tumour weight) (S-180 s.c. sarcoma; 10.0 mg./kg. 5× i.p.) [%] | Increase in life span (L-120 leukemia; 3.0 mg./kg. 4× i.p.) [%] | Recovery (90 day survival) (L-120 leukemia; 3.0 mg./kg. 4× i.p.) | Increase in life span (L-120 leukemia; 10.0 mg./kg. 4× i.p.) [%] | Recovery (90 day survival) (L-120 leukemia; 10.0 mg./kg. 4× i.p.) | Inhibition (spleen weight) (Rausher leukemia; 10.0 mg./kg. 6× i.p.) [%] | Increase in life span (P-388 leukemia; 3.0 mg./kg. 4× i.p.) [%] | Recovery (90 day survival) (P-388 leukemia; 3.0 mg./kg. 4× i.p.) | other results |
| --- | --- | --- | --- | --- | --- | --- | --- | --- | --- | --- | --- | --- | --- | --- | --- | --- | --- | --- | --- | --- | --- |
| O=NN(CCCl)C(=O)NC[C@@H](O)[C@H](O)CN(N=O)C(=O)NCCCl (racemic) [Compound 4, 1-[3-(2-chloroethyl)-3-nitrosoureido]-4-[3-(2-chloroethyl)-1-nitrosoureido]-1,4-dideoxy-D,L-threitol] | 80 | 130 | 100 | 100 | 50 | 82 |  |  |  |  |  |  |  |  |  |  |  |  |  |  |  |
| O=NN(CCCl)C(=O)NC[C@@H](O)[C@H](O)CNC(=O)N(CCCl)N=O (racemic) [Compound 5, 1,4-bis[3-(2-chloroethyl)-3-nitrosoureido]-1,4-dideoxy-D,L-threitol] | 40 | 75 |  | 100 | 62 |  |  |  |  |  |  |  |  |  |  |  |  |  |  |  | Inhibition (spleen weight) (Rausher leukemia; 3.0 mg./kg. 4× i.p.): 75%; Inhibition (tumour weight) (Yoshida s.c. sarcoma; 10 mg./kg. 2× p.o.): 99% |
| O=NN(CCCl)C(=O)NC[C@@H](O)[C@@H](O)[C@H](O)[C@H](O)CNC(=O)N(CCCl)N=O [Compound 2, 1,6-bis[3-(3-chloroethyl)-N-nitrosoureido]-1,6-dideoxy-D-mannitol] | 110 | 250 | 86 |  |  | 84 | 96 | 4/7 | 35 | 4/7 | 6/7 | 59 | 56 | 158 | 3/10 | 140 | 8/10 |  |  |  | Decrease of the thymidine index ([2]; in 24 hours): 90%; Increase in life span (P-388 leukemia; 10.0 mg./kg. 4× i.p.): 131%; Recovery (90 day survival) (P-388 leukemia; 10.0 mg./kg. 4× i.p.): 0/8; Inhibition (tumour weight) (Yoshida s.c. sarcoma; 30 mg./kg. 4× p.o.): 75%; Inhibition (tumour weight) (Harding-Passey melanoma; 10.0 mg./kg. 9× i.p.): 42%; Inhibition (tumour weight) (S-180 s.c. sarcoma; 30.0 mg./kg. 5× p.o.): 51%; Increase in life span (L-120 leukemia; 1.0 mg./kg. 4× i.p.): 58%; Recovery (90 day survival) (L-120 leukemia; 1.0 mg./kg. 4× i.p.): 0/10; Decrease of the mitosis-index ([5]; in 24 hours): 90% |
| O=NN(CCCl)C(=O)N[C@H]1C[C@@H](NC(=O)N(CCCl)N=O)[C@H](O)[C@@H](O)[C@@H]1O [Compound 3, 1,3-bis[3-(2-chloroethyl)-N-nitriosoureido]-1,2,3-trideoxyscylloinositol] | 40 | 100 |  |  |  | 86 | 46 | 2/7 |  |  |  | 38 |  |  |  |  |  | 100 | 101 | 0/8 | Recovery (90 day survival) (NK/Ly ascites lymphoma; 0.1 mg./kg. 4× (route not given)): 7/7; Increase in life span (NK/Ly ascites lymphoma; 10.0 mg./kg. 4× p.o.): 61%; Recovery (90 day survival) (NK/Ly ascites lymphoma; 10.0 mg./kg. 4× p.o.): 1/7; Inhibition (tumour weight) (Harding-Passey melanoma; 3.0 mg./kg. 9× i.p.): 54%; Increase in life span (L-120 leukemia; 10.0 mg./kg. 4× p.o.): 61%; Recovery (90 day survival) (L-120 leukemia; 10.0 mg./kg. 4× p.o.): 1/7; Increase in life span (L-120 leukemia; 15.0 mg./kg. 1× i.p.): 180%; Recovery (90 day survival) (L-120 leukemia; 15.0 mg./kg. 1× i.p.): 5/8 |
| O=NN(CCCl)C(=O)NCCCl [Compound 6, 1,3-bis(2-chloroethyl)-1-nitrosourea, reference compound] | 36 | 40 |  |  | 45 | 95 |  |  | 17 | 0/7 | 0/7 |  | 65 | 40 | 0/8 | 405 | 6/7 | 97 | 51 | 0/8 | Increase in life span (Ehrlich acites carcinoma; 3.0 mg./kg. 5× i.p.): 60%; Recovery (90 day survival) (Ehrlich acites carcinoma; 3.0 mg./kg. 5× i.p.): 1/6; Day on which the maximum decrease of the thymidine index is reached [2]: 4 days; Inhibition (tumour weight) (Yoshida s.c. sarcoma; 10 mg./kg. 4× p.o.): 100%; Cure of Yoshida subcutaneous sarcoma, in words ([4]; single dose on the 6th day): inactive; Recovery (90 day survival) (NK/Ly ascites lymphoma; 1.0 mg./kg. 4× i.p.): 5/7; Recovery (90 day survival) (NK/Ly ascites lymphoma; 3.0 mg./kg. 4× i.p.): 7/7; Inhibition (tumour weight) (Harding-Passey melanoma; 3.0 mg./kg. 9× i.p.): 64%; Inhibition (tumour weight) (Harding-Passey melanoma; 3.0 mg./kg. 9× p.o.): 71%; Inhibition (tumour weight) (S-180 s.c. sarcoma; 10.0 mg./kg. 5× p.o.): 32%; Increase in life span (L-120 leukemia; 10.0 mg./kg. 4× p.o.): 106%; Recovery (90 day survival) (L-120 leukemia; 10.0 mg./kg. 4× p.o.): 1/8; Increase in life span (L-120 leukemia; 24.0 mg./kg. 1× p.o.): 48%; Recovery (90 day survival) (L-120 leukemia; 24.0 mg./kg. 1× p.o.): 0/8; Activity on L-1210 leukemia on oral application, in words (L-120 leukemia; oral): only an unsignificant oral activity; Day on which the maximum decrease of the mitosis-index is reached [5]: 4 days |

From patent US4237273A, “Bis(nitrosoureido)-polyol derivatives” (Richter Gedeon Vegyeszeti Gyar RT, priority 1977, dated 1980)
